The source of these data is publication PMC6152084, “Synthesis of New Hydrazone Derivatives for MAO Enzymes Inhibitory Activity” (Molecules : A Journal of Synthetic Chemistry and Natural …, 2017).

One data set addresses T1, hMAO-A (Homo sapiens, UniProt P21397).
T1 construct: purchased Sigma-Aldrich (Steinheim, Germany)
T1 sequence (P21397 1-527): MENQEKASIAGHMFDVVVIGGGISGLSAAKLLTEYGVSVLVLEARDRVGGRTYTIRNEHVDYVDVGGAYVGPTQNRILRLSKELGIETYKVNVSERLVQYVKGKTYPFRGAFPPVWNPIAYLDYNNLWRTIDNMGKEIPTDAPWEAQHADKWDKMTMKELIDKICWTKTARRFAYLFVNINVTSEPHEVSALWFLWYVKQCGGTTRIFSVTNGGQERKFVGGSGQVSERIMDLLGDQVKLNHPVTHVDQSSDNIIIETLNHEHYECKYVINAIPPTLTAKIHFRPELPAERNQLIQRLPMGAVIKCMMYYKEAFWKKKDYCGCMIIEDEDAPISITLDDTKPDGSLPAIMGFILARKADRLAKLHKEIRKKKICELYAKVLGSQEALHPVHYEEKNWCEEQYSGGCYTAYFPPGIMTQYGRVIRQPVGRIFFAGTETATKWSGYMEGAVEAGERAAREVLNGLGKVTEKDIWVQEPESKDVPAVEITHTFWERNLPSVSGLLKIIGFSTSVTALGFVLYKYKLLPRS
The data set can be described thus: Enzyme kinetics (Lineweaver-Burk plots, tyramine substrate). Particulars: for type of inhibition of hMAO-A: Lineweaver-Burk plot. The format is biochemical. The protocol:
The mechanism of hMAO-A inhibition was investigated by enzyme kinetics, following a similar procedure to the MAO inhibition assay. The linear Lineweaver-Burk graphics were used to estimate the type of inhibition. […] In each case, the initial velocity measurements were gained at different substrate (tyramine) concentrations ranging from 20 μM to 0.625 μM. The Ki (intercept on the x-axis) values of compounds 2a and 2b were determined from the secondary plot of the Km/Vmax (slope) versus varying concentrations.
Based on the type of interaction with the enzyme, inhibitor binding can be classified as either reversible or irreversible. The type of inhibition can be determined by the Lineweaver-Burk plot as mixed-type, uncompetitive, competitive, or noncompetitive, which are the indicators of a reversible inhibitor [23]. It is known that in the uncompetitive type inhibition a graphic, including the parallel lines without any cross, is observed. If the lines cross neither the x- nor the y-axis at the same point the inhibition type is called mixed-type. Noncompetitive inhibition is seen if the plots intersect on the x-axis. There are different slopes and intercepts on the y-axis. On the other hand, competitive inhibition gives the opposite situation. This type of inhibition has plots with the same intercept on the y-axis but there are diverse slopes and intercepts on the x-axis, which are observed in Figure 2 and Figure 3.
The same materials were used as in the MAO inhibition assay. […] The solutions of inhibitor (20 μL/well) and enzyme were added to the flat black bottom 96-well micro test plate, and incubated at 37 °C for 30 min. After incubation period, the working solution, including various concentrations (20, 10, 5, 2.5, 1.25, and 0.625 μM) of tyramine (100 μL/well) was added. The increase of the fluorescence (Ex/Em = 535/587 nm) was recorded for 30 min. A parallel experiment was carried out without inhibitor. All processes were assayed in quadruplicate. The results were analyzed as Lineweaver-Burk plots using Microsoft Office Excel 2013. The Km/Vmax (slope) values of the Lineweaver-Burk plots were replotted versus the inhibitor concentration, and the Ki values were determined from the x-axis intercept as −Ki.

Data set [1] deals with NIH/3T3 mouse embryonic fibroblast cell line. The data set can be described thus: Cytotoxicity test (MTT assay). The class given is cell-based. Particulars: for IC50: Mus musculus, NIH3T3, MTT, read-out: IC50 against NIH/3T3 cells; for cytotoxicity (in words): at effective concentration against hMAO-A. The protocol: In cytotoxicity test by using NIH/3T3 mouse embryonic fibroblast cell line (ATCC® CRL-1658™, London, UK), firstly NIH/3T3 cells were incubated in the Dulbecco’s Modified Eagle’s Medium (DMEM, Sigma Aldrich, St. Louis, MO, USA). NIH/3T3 cells were plated on 96-well culture plates as 10,000 cells per well and were then treated with the compounds at concentrations ranging from 1000 µM to 0.316 µM (1000, 316, 100, 31.6, 10, 3.16, 1, 0.316 µM). MTT assay was performed as previously described. Dose-response curves were plotted against compound concentrations applied to determine IC50 values.
On the technique in general: Formazan colour is commonly taken as a measure of viable cells.

Data set [2] deals with Salmonella typhimurium TA98. The data set can be described thus: Ames MPF genotoxicity test, TA98. The conditions noted are these: for mutagenicity classification against TA98: in the presence and absence of metabolic activation (S9). The class given is cell-based. The method, then: An Ames MPF assay was performed to investigate the genotoxicity of the compounds 2a and 2b.
The genotoxicity of the compounds was determined by Ames assay as previously described using the Ames MPF 98/100 mutagenicity test sample kit (Xenometrix AG, Allschwil, Switzerland). This test was performed with Salmonella typhimurium strains TA98 (frameshift mutations) and TA100 (base-pair substitutions). Compounds was prepared in six different concentrations (5, 2.5, 1.25, 0.625, 0.3125, 0.156 mg/mL) which was between […] and 5000 µg/mL according to the previous guidelines in DMSO. In order to detect mutagenic potential, test performed with and without Aroclor™-1254 induced male Sprague-Dawley rat liver microsomal enzyme (S9) mix (Xenometrix AG). While the positive control for TA 98 without S9 mix was 2-nitrofluorene (2 μg/mL), 1 μg/mL of 2-aminoanthracene was positive control with S9 against TA 98. For TA100, 4-nitroquinoline N-oxide (0.1 μg/mL) was positive control without S9 mix and 2.5 μg/mL of 2-aminoanthracene was positive control. 4% DMSO solution was the solvent control. At the end of the experiment, revertant bacteria decreased the pH of solution and indicator medium colour was changed to yellow. Yellow wells were counted as positive and compared with the negative control. Fold induction over the negative control and fold induction over the baseline were calculated. Fold induction over the negative control is the ratio of the mean number of positive wells for the dose concentration divided by the mean number of positive wells for the zero dose (negative) control. Fold induction over the baseline is the ratio of the mean number of positive wells for the dose concentration divided by zero dose baseline. The zero dose baseline is obtained by adding one standard deviation to the mean number of positive wells of the zero dose control. Mutagenity was determined according to the criteria from previous studies. For a baseline value ≤ 3, significant increases between 2 and 3-fold the baseline were classified as weak mutagen, increases ≥ 3-fold the baseline were classified as mutagen. For a baseline was > 3, significant increases between 1.5 and 2.5-fold the baseline were classified as weak mutagen, and increases ≥ 2.5-fold the baseline, were classified as mutagen. In principle, for a mutagenic compound, at least two adjacent doses with significant increase or a significant increase at the highest dose level should be observed. All doses were compared according to Student’s t-test at p < 0.05 as statistically.

“Also recorded” adds a separate entry of the source. Marks after values point to notes of the source that are not given here. Where only a bound is given, the exact number is not on record here.

Turning to `CN1CCN(c2ccc(C=NNc3ccccc3)cc2)CC1` [Compound 2b, 1-(4-(4-Methylpiperazine-1-yl)benzylidene)-2-phenylhydrazine], on hMAO-A, the “Vmax value of the competitive inhibition” value came to 79.360 ± 5.704 nmol/min/mg protein. In addition, the “type of inhibition of hMAO-A” value at hMAO-A is “reversible and competitive”. In addition, in data set [1], the IC50 amounted to 20 ± 1.32 µM. Further, in data set [1], the “cytotoxicity (in words)” value was “non-cytotoxic; also recorded: not cytotoxic”. Also, the “Revertants Fold Increase (Over Baseline)” value was 0.85 in data set [2] (TA 98, S9+, 0.156 mg/mL); 0.37 in data set [2] (TA 98, S9+, 1.25 mg/mL); 0.37 in data set [2] (TA 98, S9+, 2.5 mg/mL); 0.12 in data set [2] (TA 98, S9+, 5 mg/mL); 1.24 * in data set [2] (TA 98, S9−, 0.156 mg/mL); 0.36 in data set [2] (TA 98, S9−, 0.3125 mg/mL). In addition, the “Revertants Fold Increase (Over Baseline)” value in data set [2] (TA 98, S9−, 0.625 mg/mL) turned out to be 0.22; in data set [2] (TA 98, S9−, 1.25 mg/mL), 0.00; in data set [2] (TA 98, S9−, 2.5 mg/mL), 0.00; in data set [2] (TA 98, S9−, 5 mg/mL), 0.00. The Fold-inductions over baseline in data set [2] (TA98 without S9, all concentrations) is listed as no more than 1.5. The “mutagenicity classification against TA98” value in data set [2] is listed as “not classified as a mutagen”.

What is called Ki is a measure of affinity in units of concentration, obtained from inhibition or displacement. Regarding `CC1CCCCN1c1ccc(/C=N/Nc2ccccc2)cc1` (stereo not shown) [Compound 2a, 1-(4-(2-Methypiperidin-1-yl)benzylidene)-2-phenylhydrazine], at hMAO-A, the “Vmax value of the competitive inhibition” value is reported as 85.517 ± 2.332 nmol/min/mg protein. In addition, the “type of inhibition of hMAO-A” value at hMAO-A was “reversible and competitive”. Moreover, the inhibitory constant (Ki) at hMAO-A (secondary plot of Km/Vmax (slope) versus inhibitor concentration, read-out: Ki for the inhibition of hMAO-A) worked out at 0.188 µM. Besides, in data set [1], the IC50 came to 930 ± 15.4 µM. Besides, the “cytotoxicity (in words)” value in data set [1] is listed as “non-cytotoxic; also recorded: not cytotoxic”. Also, the “Revertants Fold Increase (Over Baseline)” value in data set [2] (TA 98, S9+, 0.156 mg/mL) is on record as 0.92; in data set [2] (TA 98, S9+, 0.3125 mg/mL), 0.83; in data set [2] (TA 98, S9+, 0.625 mg/mL) it was 0.58; in data set [2] (TA 98, S9+, 1.25 mg/mL), 0.75; in data set [2] (TA 98, S9+, 2.5 mg/mL) it was 0.75; in data set [2] (TA 98, S9+, 5 mg/mL), 1.17. Moreover, the “Revertants Fold Increase (Over Baseline)” value was 0.42 in data set [2] (TA 98, S9−, 0.156 mg/mL); 0.08 * in data set [2] (TA 98, S9−, 0.3125 mg/mL); 0.58 in data set [2] (TA 98, S9−, 0.625 mg/mL); 0.50 in data set [2] (TA 98, S9−, 1.25 mg/mL); 0.08 * in data set [2] (TA 98, S9−, 2.5 mg/mL); 0.17 * in data set [2] (TA 98, S9−, 5 mg/mL). For the same compound, the “mutagenicity classification against TA98” value in data set [2] is given as “non-mutagenic”.
